{
  "source": "paper PMC3401907",
  "about": "“Cellular Uptakes, Biostabilities and Anti-miR-210 Activities of Chiral Arginine-PNAs in Leukaemic K562 Cells” (Chembiochem, 2012)",
  "key": {"[1]": {"tested_on": "RNA1 (target region of miR-210)", "assay": "Melting temperature (Tm) of PNA:RNA duplexes, full-match RNA", "type": "binding", "conditions": "UV absorbance at 260 nm, strand concentration 5 μM", "experimental": "Measurements of Tm values: The Tm values were determined with a Lambda Bio 20 spectrophotometer and a Peltier PTP6 temperature programmer. Thermal denaturation profiles were measured by monitoring the absorbance at 260 nm from 18 to 90 °C with a heating rate of 1 °C min^−1 and recording every 0.1 °C. […]"}, "miR-210": {"tested_on": "miR-210", "assay": "miR-210 content by RT-qPCR analysis", "type": "cell-based, human", "conditions": "K562 cells, 24 h", "experimental": "K562 cells were treated with 15 nM mithramycin in the presence of a PNA (2 μM), and after 24 h RNA was isolated and miR-210 was assayed by RT-qPCR analysis. This type of test has been used to evaluate miR content in many studies because it allows the free-miR content to be evaluated. […] Figure 5 A and B reports the obtained data, showing that inhibition of miR bioavailability was induced both with the modified PNA and with the peptide-conjugated one, whereas in the case of PNA1 it was unchanged. […] This might be related to inhibition of pre-miR maturation or to unavailability of the miR to the qRT-PCR analysis due to strong complexation with the PNA. In either case the bioavailability of the miR for targeting other genes should be reduced.\nTransfection procedures: Anti-miR-210 PNAs were directly added to the cellular medium to reach the indicated final concentrations. K562 cells were cultured in 24-well plates starting from the initial density of 30 000 cells per mL. MTH was administrated together with anti-miR PNAs.\nRNA extraction: Cells were isolated by centrifugation at 1500 rpm for 10 min at 4 °C, washed in PBS and lysed in Tri-reagent (Sigma–Aldrich) according to the manufacturer's instructions. The isolated RNA was washed once with cold ethanol (75 %), dried and dissolved in ultrapure nuclease-free water.\nReal-time quantitative PCR: For microRNA quantification with real-time RT-PCR reagents, the primers and probes were obtained from Applied Biosystems. Reverse transcriptase (RT) reactions were performed with a TaqMan MicroRNA Reverse Transcription Kit (Applied Biosystems) for hsa-miR-210, hsa-miR-10a, hsa-miR-93, hsa-miR-99b, hsa-miR-126, hsa-miR-149, hsa-miR-424, hsa-miR-483-5p, hsa-miR-625, hsa-let-7c and the iQTM5 real-time PCR System Instrument (Bio-Rad). Relative expression was calculated by the comparative cycle threshold method and U6 microRNA was used as reference gene to normalise all RNA samples, because it is constant in the assayed samples by miR-profiling and quantitative RT-PCR analysis as previously reported.[25]"}, "[2]": {"tested_on": "let-7c, miR-10a, miR-93, miR-99b, miR-126, miR-149, miR-424, miR-494, miR-483-5p and miR-625", "assay": "Content of other microRNAs by RT-PCR (sequence specificity)", "type": "cell-based, human", "conditions": "n=3", "experimental": "Figure 5 A), B) Effects of treatment with PNA1, PNA2, PNA3, PNA4, PNA5 and PNA6 molecules on miR-210 contents in cells cultured for 24 h A) in the absence (□), and B) in the presence (▪) of MTH (15 nM). Data are reported as arbitrary units relative to cells treated with pept-1 (□) or with pept-1 and MTH (▪). C) Effects of treatment with PNA4 on miRNA contents in cells cultured for 24 h in the presence of MTH; RT-PCR was performed with a TaqMan MicroRNA Reverse Transcription Kit (Applied Biosystems) for let-7c, miR-10a, miR-93, miR-99b, miR-126, miR-149, miR-424, miR-483-5p and miR-625. Data are reported as arbitrary units relative to untreated cells (average ±SD; n=3).\nReal-time quantitative PCR: For microRNA quantification with real-time RT-PCR reagents, the primers and probes were obtained from Applied Biosystems. […] Relative expression was calculated by the comparative cycle threshold method and U6 microRNA was used as reference gene to normalise all RNA samples, because it is constant in the assayed samples by miR-profiling and quantitative RT-PCR analysis as previously reported.[25]"}},
  "data": [
    {"substance": "H-C5LArgC5LArgG5LArgC5LArgT5LArgG5LArgT5LArgC5LArgACACGCACAG-NH2 [PNA4, 5L Arg (C5) backbone-modified 18-mer PNA, model 2, stretch of consecutive modified monomers]", "values": [
      {"measurement": "Tm, RNA1 in water", "setting": "[1]; PBS buffer pH 7, no urea", "value": ">90", "unit": "°C"},
      {"measurement": "Tm, RNA1 in urea (5 M)", "setting": "[1]; PBS buffer pH 7 with urea 5 M", "value": 86, "unit": "°C"},
      {"measurement": "miR-210 inhibition upon treatment with mithramycin", "setting": "miR-210; PNA 2 μM with MTH 15 nM, relative to pept-1 and MTH", "value": "best results"},
      {"measurement": "inhibition of miR-210 bioavailability (miR-210 content)", "setting": "miR-210; PNA 2 μM, Figure 5 A and B, relative to pept-1", "value": "Stronger inhibition"},
      {"measurement": "effect on miR-149 hybridisation signal", "setting": "[2]; K562 cells 24 h in the presence of MTH, RT-PCR", "value": "inhibition of the hybridisation signal"},
      {"measurement": "effect on hybridisation availability of other miRs", "setting": "[2]; K562 cells 24 h with MTH, let-7c, miR-10a, miR-93, miR-99b, miR-126, miR-424, miR-494, miR-483-5p, miR-625", "value": "no major effects"}
    ]}
  ]
}
